Patent US10294202B2, “Pyrrolidinones as herbicides” (FMC Corporation, priority 2013, dated 2019)

Assays:
[1] = test system: wheat (winter wheat); assay: Test C pre-/postemergence herbicide test; type: in vivo, Triticum aestivum
Procedure, shortened: (§1)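 Compound solutions contained surfactant in a non-phytotoxic solvent. These were sprayed onto pots of loam/sand sown with seeds, and onto young plants (2 to 18 cm, 1- to 4-leaf) in sphagnum peat–vermiculite mix. Visual injury scores (0 none, 100 complete control) were recorded after 13 to 15 days.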

[2] = test system: oilseed rape; assay: Test C pre-/postemergence herbicide test; type: in vivo, Brassica napus
Procedure, shortened: as §1

[3] = test system: rice; assay: Test B flooded paddy test; type: in vivo, Oryza sativa; details: 500 g ai/ha, Flood; scale of 0 to 100 where 0 is no effect and 100 is complete control
Procedure, shortened: (§2)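 First, plants reach the 2-leaf stage; next, pots are flooded to 3 cm and compound is delivered into the water; finally, after 13 to 15 greenhouse days at constant depth, injury is graded visually from 0 to 100 against controls.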

[4] = test system: pigweed; assay: Test A pre-/postemergence herbicide test; type: in vivo, Amaranthus retroflexus
Procedure, shortened: (§3)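 Formulated compound (non-phytotoxic solvent, surfactant) sprayed pre- onto soil of seeded loam/sand pots or post- onto seedlings at 1–2 leaves; ~10 d greenhouse; 0–100 visual control rating versus untreated.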

[5] = test system: waterhemp; assay: Test C pre-/postemergence herbicide test; type: in vivo, Amaranthus rudis
Procedure, shortened: as §1

[6] = test system: barnyardgrass; assay: Test B flooded paddy test; type: in vivo, Echinochloa crus-galli; details: 500 g ai/ha, Flood; scale of 0 to 100 where 0 is no effect and 100 is complete control
Procedure, shortened: as §2

[7] = test system: wheat; assay: Test A pre-/postemergence herbicide test; type: in vivo, Triticum aestivum; details: Postemergence
Procedure, shortened: as §3

[8] = test system: morningglory; assay: Test C pre-/postemergence herbicide test; type: in vivo, Ipomoea coccinea
Procedure, shortened: as §1

[9] = test system: sedge, umbrella; assay: Test B flooded paddy test; type: in vivo, Cyperus difformis; details: 500 g ai/ha, Flood; scale of 0 to 100 where 0 is no effect and 100 is complete control
Procedure, shortened: as §2

[10] = test system: corn; assay: Test A pre-/postemergence herbicide test; type: in vivo, Zea mays; details: Postemergence
Procedure, shortened: as §3

[11] = test system: oat, wild; assay: Test C pre-/postemergence herbicide test; type: in vivo, Avena fatua; details: Postemergence
Procedure, shortened: as §1

[12] = test system: ragweed; assay: Test C pre-/postemergence herbicide test; type: in vivo, Ambrosia elatior
Procedure, shortened: as §1

[13] = Postemergence, 31 g ai/ha, scale 0 to 100 (0 no effect, 100 complete control)
[14] = Postemergence, 62 g ai/ha, scale 0 (no effect) to 100 (complete control)
[15] = Postemergence, 125 g ai/ha, scale 0 to 100 (0 no effect, 100 complete control)
[16] = Postemergence, 250 g ai/ha, scale 0 to 100 (0 no effect, 100 complete control)
[17] = Preemergence, 31 g ai/ha, scale 0 to 100, 0 is no effect and 100 is complete control
[18] = Preemergence, 62 g ai/ha, scale 0 to 100 (0 no effect, 100 complete control)
[19] = Preemergence, 125 g ai/ha, scale 0 to 100 (0 no effect, 100 complete control)
[20] = 125 g ai/ha, 0 to 100 scale, 0 is no effect, 100 is complete control
[21] = 31 g ai/ha, scale 0 to 100 (0 no effect, 100 complete control)
[22] = 62 g ai/ha, scale 0 (no effect) to 100 (complete control)
[23] = 125 g ai/ha, scale 0 to 100 (0 no effect, 100 complete control)
[24] = 250 g ai/ha, scale 0 to 100 (0 no effect, 100 complete control)
[25] = 125 g ai/ha, visual rating on 0 to 100 scale (0 no effect, 100 complete control), approx. 10 days
[26] = 500 g ai/ha, 0 to 100 scale (0 no effect, 100 complete control)

O=C1NCC(c2cccc(OC(F)F)c2)C1C(=O)Nc1cccc(F)c1F (stereo not shown) [Compound 224]
Plant response rating, Wheat [1, 13]: 0
Plant response rating, Wheat [1, 14]: 0
Plant response rating, Wheat [1, 15]: 5
Plant response rating, Wheat [1, 16]: 5
Wheat plant response rating [1, 17]: 0
Wheat plant response rating [1, 18]: 0
Plant response rating, Wheat [1, 19]: 0
Plant response rating (scale of 0 to 100), Wheat ([1]; Preemergence, 250 g ai/ha): 45
Plant response rating, Oilseed Rape [2, 13]: 0
Plant response rating, Oilseed Rape [2, 14]: 15
Plant response rating, Oilseed Rape [2, 15]: 20
Plant response rating, Oilseed Rape [2, 16]: 5
Oilseed Rape plant response rating [2, 17]: 0
Oilseed Rape plant response rating [2, 18]: 5
Plant response rating, Oilseed Rape [2, 19]: 70
Plant response rating (scale of 0 to 100), Oilseed Rape ([2]; Preemergence, 250 g ai/ha): 85
Plant response rating, Rice [3]: 0
Plant response rating, Pigweed ([4]; 125 g ai/ha, visual rating, 0 to 100 scale, 0 no effect, 100 complete control, approximately 10 days, preemergence): 80
Plant response rating, Pigweed ([4]; Postemergence, 125 g ai/ha, 0 to 100 scale, 0 is no effect, 100 is complete control): 60
Pigweed plant response rating (0 to 100 scale, 0 is no effect, 100 is complete control) ([4]; Postemergence, 500 g ai/ha): 80
Plant response rating, Pigweed ([4]; preemergence, 500 g ai/ha, 0 to 100 scale, 0 is no effect and 100 is complete control): 80
Plant response rating, Waterhemp [5, 13]: 25
Plant response rating, Waterhemp [5, 14]: 35
Plant response rating, Waterhemp [5, 15]: 30
Plant response rating, Waterhemp [5, 16]: 30
Waterhemp plant response rating [5, 17]: 75
Waterhemp plant response rating [5, 18]: 5
Plant response rating, Waterhemp [5, 19]: 70
Plant response rating (scale of 0 to 100), Waterhemp ([5]; Preemergence, 250 g ai/ha): 80
Plant response rating, Barnyardgrass [6]: 70
Plant response rating, Wheat [7, 20]: 50
Wheat plant response rating (0 to 100 scale, 0 is no effect, 100 is complete control) ([7]; 500 g ai/ha): 60
Plant response rating, Morningglory [8, 13]: 5
Plant response rating, Morningglory [8, 14]: 5
Plant response rating, Morningglory [8, 15]: 35
Plant response rating, Morningglory [8, 16]: 35
Morningglory plant response rating [8, 17]: 5
Morningglory plant response rating [8, 18]: 25
Plant response rating, Morningglory [8, 19]: 5
Plant response rating (scale of 0 to 100), Morningglory ([8]; Preemergence, 250 g ai/ha): 30
Plant response rating, Sedge, Umbrella [9]: 0
Plant response rating, Corn [10, 20]: 60
Corn plant response rating (0 to 100 scale, 0 is no effect, 100 is complete control) ([10]; 500 g ai/ha): 80
Plant response rating, Oat, Wild [11, 21]: 0
Plant response rating, Oat, Wild [11, 22]: 0
Plant response rating, Oat, Wild [11, 23]: 5
Plant response rating, Oat, Wild [11, 24]: 15
Plant response rating, Ragweed [12, 13]: 20
Plant response rating, Ragweed [12, 14]: 65
Plant response rating, Ragweed [12, 15]: 45
Plant response rating, Ragweed [12, 16]: 80
Ragweed plant response rating [12, 17]: 10
Ragweed plant response rating [12, 18]: 40
Plant response rating, Ragweed [12, 19]: 100
Plant response rating (scale of 0 to 100), Ragweed ([12]; Preemergence, 250 g ai/ha): 100

CN1CC(c2ccc(F)c(F)c2)C(C(=O)Nc2cccc(F)c2F)C1=O (stereo not shown) [Compound 303]
Plant response rating, Wheat [1, 13]: 0
Plant response rating, Wheat [1, 14]: 0
Plant response rating, Wheat [1, 15]: 0
Plant response rating, Wheat [1, 16]: 0
Wheat plant response rating [1, 17]: 0
Wheat plant response rating [1, 18]: 75
Plant response rating (scale of 0 to 100), Wheat ([1]; Preemergence, 250 g ai/ha): 90
Plant response rating, Oilseed Rape [2, 13]: 0
Plant response rating, Oilseed Rape [2, 14]: 0
Plant response rating, Oilseed Rape [2, 15]: 0
Plant response rating, Oilseed Rape [2, 16]: 30
Oilseed Rape plant response rating [2, 17]: 0
Oilseed Rape plant response rating [2, 18]: 35
Plant response rating, Oilseed Rape [2, 19]: 80
Plant response rating (scale of 0 to 100), Oilseed Rape ([2]; Preemergence, 250 g ai/ha): 85
Plant response rating, Rice [3]: 30
Plant response rating, Pigweed ([4]; Postemergence, 125 g ai/ha, visual rating on 0 to 100 scale (0 no effect, 100 complete control), approx. 10 days): 40
Plant response rating, Pigweed ([4]; Postemergence, 500 g ai/ha, 0 to 100 scale (0 no effect, 100 complete control)): 60
Plant response rating, Pigweed ([4]; Preemergence, 125 g ai/ha, 0 to 100 scale where 0 is no effect and 100 is complete control): 20
Pigweed plant response rating ([4]; Preemergence, 500 g ai/ha, visual rating on 0 to 100 scale (0 no effect, 100 complete control)): 50
Plant response rating, Waterhemp [5, 13]: 0
Plant response rating, Waterhemp [5, 14]: 35
Plant response rating, Waterhemp [5, 15]: 0
Plant response rating, Waterhemp [5, 16]: 25
Waterhemp plant response rating [5, 17]: 40
Waterhemp plant response rating [5, 18]: 65
Plant response rating, Waterhemp [5, 19]: 65
Plant response rating (scale of 0 to 100), Waterhemp ([5]; Preemergence, 250 g ai/ha): 75
Plant response rating, Barnyardgrass [6]: 80
Plant response rating, Wheat [7, 25]: 50
Plant response rating, Wheat [7, 26]: 60
Plant response rating, Morningglory [8, 13]: 10
Plant response rating, Morningglory [8, 14]: 60
Plant response rating, Morningglory [8, 15]: 0
Plant response rating, Morningglory [8, 16]: 0
Morningglory plant response rating [8, 17]: 0
Morningglory plant response rating [8, 18]: 0
Plant response rating, Morningglory [8, 19]: 15
Plant response rating (scale of 0 to 100), Morningglory ([8]; Preemergence, 250 g ai/ha): 45
Plant response rating, Sedge, Umbrella [9]: 0
Plant response rating, Corn [10, 25]: 50
Plant response rating, Corn [10, 26]: 70
Plant response rating, Oat, Wild [11, 21]: 0
Plant response rating, Oat, Wild [11, 22]: 0
Plant response rating, Oat, Wild [11, 23]: 0
Plant response rating, Oat, Wild [11, 24]: 0
Plant response rating, Ragweed [12, 13]: 0
Plant response rating, Ragweed [12, 14]: 0
Plant response rating, Ragweed [12, 15]: 40
Plant response rating, Ragweed [12, 16]: 55
Ragweed plant response rating [12, 17]: 5
Ragweed plant response rating [12, 18]: 70
Plant response rating, Ragweed [12, 19]: 75
Plant response rating (scale of 0 to 100), Ragweed ([12]; Preemergence, 250 g ai/ha): 80
